Values quoted from earlier work, collected in patent US20210186870A1, “IMPROVED CANNABINOID BIOAVAILABILITY” (EMERALD HEALTH TH[…] INC., priority 2018, published 2021).
Read-outs that look alike come from different tables or passages of the source.

In the case of CCCCCc1cc(O)c2c(c1)OC(C)(C)[C@@H]1CCC(C)=C[C@@H]21 [THC, tetrahydrocannabinol], the “bioavailability of THC” value (from inhaled cannabis smoke) is given as 2-56% and the “bioavailability of THC” value (orally consumed cannabis) is given as 4-20%.
